Test system: U87 glioblastoma tumor tissue
Experiment: Histology and immunohistochemistry of U87 xenograft tumors
Assay type: in vivo, athymic nude mice
Conditions: day 19
Experimental: For the histological study, the tumor specimens were fixed in 10% neutral-buffered formalin (BioVitrum, Moscow, Russia), dehydrated in ascending ethanols and xylols and embedded in HISTOMIX paraffin (BioVitrum, Russia). The paraffin sections (3–4 µm) were sliced on a Microm HM 355S microtome (Thermo Fisher Scientific, Waltham, MA, USA) and stained with hematoxylin and eosin.
For the immunohistochemical study, the tumor sections were deparaffinized and rehydrated. Antigen retrieval was carried out after exposure in a microwave oven at 700 W. The samples were incubated with anti-Ki-67 (ab16667, Abcam, Boston, MA, USA) (n = 3), anti-GFAP (ab194325, Abcam, USA) (n = 3), and anti-N-cadherin (ab76011, Abcam, USA) (n = 3) primary antibodies according to the manufacturer’s protocol. Then, the sections were incubated with secondary horseradish peroxidase (HPR)-conjugated antibodies, exposed to the 3,30-diaminobenzidine (DAB) substrate (Rabbit Specific HRP/DAB (ABC) Detection IHC Kit, ab64261, Abcam, USA) and stained with Mayer’s hematoxylin.
Five to ten random fields were examined from the tumor specimens of three mice in each group, for a total of 15–30 test fields.

## Cc1ccc(NC(=O)[C@@]2(C)CC[C@]3(C)CC[C@]4(C)[C@H](C(=O)C=C5[C@@]6(C)C=C(C#N)C(=O)C(C)(C)C6CC[C@]54C)[C@@H]3C2)cc1 (some centres unmarked) [compound 7, N-p-tolyl-2-cyano-3,12-dioxo-18βH-olean-9(11),1(2)-dien-30-amide]
  N-cadherin and GFAP levels in tumor sections (immunohistochemistry): significantly reduced their levels
  reduction in the numerical density of Ki-67-positive cells compared to vehicle: 4 fold

— article PMC11317440, “Soloxolone para-methylanilide effectively suppresses aggressive phenotype of glioblastoma cells including TGF-β1-induced glial-mesenchymal transition in vitro and inhibits growth of U87 glioblastoma xenografts in mice” (Frontiers in Pharmacology, 2024)
